The source of these data is patent US12049452B2, “Olaparib hydroxybenzoic acid cocrystals and their pharmaceutical use” (NUFORMIX TECHNOLOGIES LIMITED, priority 2021, dated 2024).

Data set [1] is described as follows: Solid-state stability study under accelerated storage conditions (XRPD form change, HPLC purity). The data set is classed as physicochemical. The note with it: 7 days; for Purity: HPLC. Here is the method:
Bruker D8 X-Ray Powder Diffraction (XRPD) Characterization: X-ray powder diffraction patterns for the samples were acquired on a Bruker D8 diffractometer using Cu Ka radiation (40 kV, 40 mA) and a θ-2θ goniometer fitted with a Ge monochromator. The incident beam passes through a 2.0 mm divergence slit followed by a 0.2 mm anti-scatter slit and knife edge. The diffracted beam passes through an 8.0 mm receiving slit with 2.5° Soller slits followed by the Lynxeye Detector. The software used for data collection and analysis was Diffrac Plus XRD Commander and Diffrac Plus EVA respectively. Samples were run under ambient conditions over an angular range of 2° to 42° 2θ (using a step size of 0.05° 2θ and a step time of 0.5 seconds) as flat plate specimens using powder as received. The sample was prepared on a polished, zero-background (510) silicon wafer by gently pressing onto the flat surface or packed into a cut cavity. The sample was rotated in its own plane. Small D8 disc recess holders were used to prepare samples.
Chemical Purity Determination by HPLC: Purity analysis was performed on an Agilent HP1100/Infinity II 1260 series system equipped with a diode array detector and using Open LAB software.
A study was carried out to examine the physical stability of the olaparib hydroxybenzoic acid cocrystals with respect to solid form conversion or signs of decomposition over time under accelerated storage conditions. The 1:1 olaparib gentisic acid cocrystal, 2:1 olaparib gentisic acid cocrystal, 1:1 olaparib 2,4-dihydroxybenzoic acid cocrystal, 2:1 2,4-dihydroxybenzoic acid cocrystal, and the 2:1 olaparib 4-hydroxybenzoic acid cocrystal were separately stored at 40° C./75% relative humidity and 25° C./97% relative humidity for 7 days. After this time, all samples remained as white solids with no signs of deliquescence. Each sample was analysed by XRPD to observe any potential form changes and by HPLC to determine purity so as to determine any signs of decomposition.

The nature of data set [2]: Gravimetric Vapour Sorption (GVS) moisture sorption isotherm. It is filed as physicochemical. The settings on record: for XRPD analysis of the sample post GVS (cocrystal structure): after GVS isotherm. On the procedure:
Gravimetric Vapour Sorption (GVS): Sorption isotherms were obtained using a SMS DVS Intrinsic moisture sorption analyzer, controlled by DVS Intrinsic Control software. The sample temperature was maintained at 25° C. by the instrument controls. The humidity was controlled by mixing streams of dry and wet nitrogen, with a total flow rate of 200 ml/min. The relative humidity was measured by a calibrated Rotronic probe (dynamic range of 1.0-100% RH), located near the sample. The weight change, (mass relaxation) of the sample as a function of % RH was constantly monitored by a microbalance (accuracy ±0.005 mg).
Typically, 5-30 mg of sample was placed in a tared mesh stainless steel basket under ambient conditions. The sample was loaded and unloaded at 40% RH and 25° C. (typical room conditions). A moisture sorption isotherm was performed as outlined in Table 1 (2 scans per complete cycle). The standard isotherm was performed at 25° C. at 10% RH intervals over a 0-90% RH range. Typically, a double cycle (4 scans) was carried out. Data analysis was carried out within Microsoft Excel using the DVS Analysis Suite. The sample was recovered after completion of the isotherm and re-analyzed by XRPD.

The conditions of data set [3]: low solubility and low permeability; cited from earlier work.
A short description of data set [4]: Dissolution study in simulated intestinal fluid (FaSSIF V2), Pion inForm instrument. The data set is classed as physicochemical. The settings on record: FaSSIF V2 pH 6.5, 37° C. An excerpt:
As described in US 2018/0113216, the oral bioavailability of olaparib is dependent on both the dissolution rate and overall solubility of the drug in the gastro-intestinal (GI) tract. US 2018/0113216 describes how olaparib has a propensity for efflux by P-gp at concentrations limiting its permeability and thus limiting its absorption from the GI tract. This efflux ratio is lowered as the concentration of drug in solution increases. Thus, to minimize this efflux issue and achieve optimal absorption and bioavailability it is essential to find a form of olaparib that has as high a dissolution rate as possible in the GI tract and that also maintains a high level of solubility over a sufficient period of time to allow the drug to be absorbed into the blood stream. […] The dissolution study was carried out using 50 mL simulated intestinal fluid (FaSSIF V2) at pH 6.5 (37° C.) using a quantity of each olaparib form equivalent to 25 mg olaparib. […] Detection and quantification of olaparib was performed by in-situ UV-spectroscopy using a fibre-optic probe, allowing instantaneous data collection from the point of sample introduction. UV absorption data was converted to mg/mL (±0.2 mg/mL) using a previously determined pH dependent molar extinction coefficients to quantitate the amount of dissolved drug.

Setting [5] is: across the 0-90% relative humidity range at 25° C. under nitrogen.

`O=C(O)c1cc(O)ccc1O.O=C(c1cc(Cc2n[nH]c(=O)c3ccccc23)ccc1F)N1CCN(C(=O)C2CC2)CC1` [1:1 olaparib gentisic acid cocrystal]: in data set [1] (25° C./97% RH), the “XRPD Analysis” value is recorded as “No change” and the Purity was 99.79%. Besides, in data set [1] (40° C./75 RH), the “XRPD Analysis” value is “No change” and the Purity stood at 99.70%.
Turning to `O=C(O)c1cc(O)ccc1O.O=C(c1cc(Cc2n[nH]c(=O)c3ccccc23)ccc1F)N1CCN(C(=O)C2CC2)CC1.O=C(c1cc(Cc2n[nH]c(=O)c3ccccc23)ccc1F)N1CCN(C(=O)C2CC2)CC1` [2:1 olaparib gentisic acid cocrystal], the “reversibly absorbed moisture (GVS)” value in data set [2] (setting [5]) stood at 3.4 % w/w; in data set [2] (between 0 and 5% RH, 25° C.) it was 1.6 % w/w. Also, the “XRPD analysis of the sample post GVS (cocrystal structure)” value (“XRPD analysis of the sample post GVS” below) in data set [2] is “unchanged”. Further, the “XRPD Analysis” value in data set [1] (25° C./97% RH) and in data set [1] (40° C./75 RH) was “No change” throughout. The figures for the Purity in data set [1] (25° C./97% RH) and in data set [1] (40° C./75 RH) were 99.64% and 99.59%, respectively.
Regarding `O=C(O)c1ccc(O)cc1O.O=C(c1cc(Cc2n[nH]c(=O)c3ccccc23)ccc1F)N1CCN(C(=O)C2CC2)CC1.O=C(c1cc(Cc2n[nH]c(=O)c3ccccc23)ccc1F)N1CCN(C(=O)C2CC2)CC1`, the “reversibly absorbed moisture (GVS)” value in data set [2] (setting [5]) came to 4.5 % w/w; in data set [2] (between 0 and 5% RH, 25° C.), 2.5 % w/w. Besides, the “XRPD analysis of the sample post GVS” value in data set [2] was “unchanged”. Also, the “XRPD Analysis” value in data set [1] (25° C./97% RH) and in data set [1] (40° C./75 RH) was “No change” each time. Moreover, the Purity is on record as 99.64% in data set [1] (25° C./97% RH) and 99.45% in data set [1] (40° C./75 RH).
On to `O=C(O)c1ccc(O)cc1.O=C(c1cc(Cc2n[nH]c(=O)c3ccccc23)ccc1F)N1CCN(C(=O)C2CC2)CC1.O=C(c1cc(Cc2n[nH]c(=O)c3ccccc23)ccc1F)N1CCN(C(=O)C2CC2)CC1`, for which the “reversibly absorbed moisture (GVS)” value is listed as 3.4 % w/w in data set [2] (setting [5]); 1.5 % w/w in data set [2] (between 0 and 5% RH, 25° C.). The “XRPD analysis of the sample post GVS” value in data set [2] is “unchanged”. Also, the “XRPD Analysis” value in data set [1] (25° C./97% RH) and in data set [1] (40° C./75 RH) was “No change” throughout. The Purity was found to be 99.69% in data set [1] (25° C./97% RH) and 99.70% in data set [1] (40° C./75 RH).
Take `O=C(c1cc(Cc2n[nH]c(=O)c3ccccc23)ccc1F)N1CCN(C(=O)C2CC2)CC1` [olaparib, 4-[(3-{[4-(cyclopropylcarbonyl)piperazin-1-yl]carbonyl}-4-fluorophenyl)methyl]phthalazin-1(2H)-one]: the BCS class entry in data set [3] is on record as “class 4”.
`O=C(O)c1ccc(O)cc1O.O=C(c1cc(Cc2n[nH]c(=O)c3ccccc23)ccc1F)N1CCN(C(=O)C2CC2)CC1`: the “XRPD Analysis” value in data set [1] (25° C./97% RH) and in data set [1] (40° C./75 RH) was “No change” throughout. For the same compound, the Purity came out at 99.22% in data set [1] (25° C./97% RH) and 99.43% in data set [1] (40° C./75 RH).
Turning to `O=C(c1cc(Cc2n[nH]c(=O)c3ccccc23)ccc1F)N1CCN(C(=O)C2CC2)CC1` [milled olaparib form A], the “amount of olaparib dissolved after particle size reduction” value in data set [4] (any one timepoint over a 30-minute time period, compared with form A as supplied) was “overall decrease in the amount of olaparib dissolved”. Also, the “rate of dissolution after particle size reduction” value in data set [4] (compared with olaparib form A as supplied) is “lower rate of dissolution”.
